Values joined by “and” are separate entries in the source; they are usually repeats but may differ in a detail not shown here. Equal entries are not always repeated. Where two headings read alike, the source gives them in different places.
Biological target: T1, human type 5 17β-hydroxysteroid dehydrogenase (Homo sapiens, UniProt P42330)
T1 construct: screen again a human placental λgt11 cDNA to get the full length cDNA clone; expressed in transfected cells; host or cells: human embryonal kidney 293 cells (pCMV / pCMV-neo vector)
T1 sequence (P42330 1-323): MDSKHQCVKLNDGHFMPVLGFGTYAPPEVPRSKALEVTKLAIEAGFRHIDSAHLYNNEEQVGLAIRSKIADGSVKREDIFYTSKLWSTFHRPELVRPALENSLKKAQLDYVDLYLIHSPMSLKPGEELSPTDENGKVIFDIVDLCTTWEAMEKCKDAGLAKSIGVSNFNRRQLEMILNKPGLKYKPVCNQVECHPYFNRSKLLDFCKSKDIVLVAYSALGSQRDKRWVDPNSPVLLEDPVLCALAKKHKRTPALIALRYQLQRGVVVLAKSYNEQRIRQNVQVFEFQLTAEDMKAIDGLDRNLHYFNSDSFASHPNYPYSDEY
Assay: Inhibition of human type 5 17β-HSD activity in transfected 293 cells
Assay type: cell-based
Design: Inhibition Type V 17B-HSD % Inh. At 3 · 10^−7 (second value in parentheses): concentration or dose not given beside the values
Method in brief: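 Human type 5 17β-HSD cDNA in a CMV-promoter vector, transfected by calcium phosphate (1 to 10 μg plasmid per 10^6 cells) into 293 cells grown in DMEM with 10% FBS at 37 °C.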

[1] = Table 4′, read-out: Inhibition Type V 17β-HSD IC50
[2] = read-out: Inhibition Type V 17B-HSD IC50
[3] = read-out: Inhibition Type V 17β-HSD IC50

| Compound | IC50 [1] | other results |
| --- | --- | --- |
| C[C@]12CCC3c4cc([N+](=O)[O-])c(O)cc4CCC3C1CC[C@@]21CCCC(=O)O1 (stereo partly drawn) [EM-1124, 2-Nitro-1,3,5(10)-estraetriene-3-ol-17(R)-spiro-2′-(6′-oxo)tetrahydropyran] | 3 ± 0.2 nM | – |
| COc1c(Br)cc2c(c1Br)CCC1C2CCC2(C)C1CCC21CCC(C)(C)C(=O)O1 (centres unmarked) [EM-1385-CS] | 51 nM | – |
| COc1ccc2c(c1)C(=O)CC1C2CC[C@@]2(C)C1CC[C@@]21CCC(C)(C)C(=O)O1 (some centres unmarked) [EM-1394] | 9 nM | – |
| CC12C=CC(=O)C=C1C=CC1C2CCC2(C)C(=O)C3(CCCCC3)CC12 (centres unmarked) [CS-204] | – | IC50 [2]: 94 nM |
| CC(C)C[C@@H]1CC2C3C=CC4=CC(=O)CC[C@]4(C)C3CC[C@]2(C)C1=O (some centres unmarked) [EM-1273-CS] | – | IC50 [2]: 9 nM |
| CC1CCC2(CCC3C4CCc5ccccc5C4CCC32C)OC1=O (centres unmarked) [EM-1025] | 6.1 nM and 4.3 nM | – |
| CC1CC(=O)OC2(CCC3C4CCc5cc(O)ccc5C4CCC32C)C1 [PB-132-142, 3-Hydroxy-1,3,5(10)-estratrien-17(R)-spiro-2′-(4′-methyl-6′-oxo)tetrahydropyran] | 19 ± 1.5 nM | – |
| CC1(C)CCC2(CCC3C4CCc5c(cc(Cl)c(O)c5Cl)C4CCC32C)OC1=O (centres unmarked) [EM-1391-CS] | 19 nM | – |
| CCOc1ccc2c(c1)CCC1C2CC[C@@]2(C)C1CC[C@@]21CCC(C)(C)C(=O)O1 (stereo partly drawn) [EM-1369, 3-Ethoxy-1,3,5(10)-estratrien-17(R)-spiro-2′-(5′,5′-dimethyl-6′-oxo)-tetrahydropyran] | 46 nM | – |
| C[C@]12CCC3c4ccc(O)cc4CCC3C1CC[C@@]21CCCC(=O)O1 (stereo partly drawn) [EM-919, 1,3,5(10)-estratrien-3-ol-17(R)-spiro-2′(6′-oxo)tetrahydropyran] | 10 ± 1.4 nM | – |
| CCC[C@]1(F)CC2C3C=CC4=CC(=O)CC[C@]4(C)C3CC[C@]2(C)C1=O (some centres unmarked) [EM-1183] | – | IC50 [2]: 4.6 ± 0.4 nM |
| COC(=O)c1cc2c(cc1O)CCC1C2CCC2(C)C1CCC21CCC(C)(C)C(=O)O1 (centres unmarked) [EM-01662] | 35 ± 5 nM | – |
| COCCOc1ccc2c(c1)C(=O)CC1C2CCC2(C)C1CCC21CCC(C)(C)C(=O)O1 (centres unmarked) [EM-1408-CS] | 5.5 ± 1 nM | – |
| CC1(C)CCC2(CCC3C4CCc5c(cc(Cl)c(OS(C)(=O)=O)c5Cl)C4CCC32C)OC1=O (centres unmarked) [EM-1392-CS] | 19 nM | – |
| CC1(C)CC[C@@]2(CCC3C4CCc5cc(F)ccc5C4CC[C@@]32C)OC1=O (some centres unmarked) [EM-1157-CS] | 4 nM and 10 nM | – |
| CC(=O)[C@@]1(OC(=O)CCCCF)CCC2C3C=C(C)C4=CC(=O)CC[C@]4(C)C3CC[C@@]21C (some centres unmarked) [EM-1195-CS] | – | IC50 [3]: 4 ± 0.5 nM |
| CSCCOc1ccc2c(c1)CCC1C2CCC2(C)C1CCC21CCCC(=O)O1 [CS-242, 3-Methylthioethyloxy-1,3,5(10)-estratrien-17(R)-spiro-2′-(6′-oxo) Tetrahydropyran] | 6.6 ± 0.9 nM | – |
| CC(=O)O[C@]1(C)C(=O)CCC2C3C=C(C)C4=CC(=O)C=C[C@]4(C)C3CC[C@@]21C (some centres unmarked) [CS-237] | – | IC50 [2]: 9 ± 1 nM |
| CN(C)C(=O)c1ccc2c(c1)CCC1C2CCC2(C)C1CCC21CCC(C)(C)C(=O)O1 (centres unmarked) [EM-1403] | 7.2 ± 1.6 nM | – |
| COCCOc1cc2c(cc1Cl)C1CCC3(C)C(CCC34CCC(C)(C)C(=O)O4)C1CC2 (centres unmarked) [EM-1371-CS] | 19 nM and 20 nM | – |
| COCCOc1cc2c(cc1C(F)(F)F)[C@H]1CC[C@@]3(C)[C@@H](CC[C@@]34CCC(C)(C)C(=O)O4)[C@@H]1CC2 [EM-1438, 3-(2′-Methoxyethoxy)-2-trifluoromethyl-1,3,5(10)-estratrien-17(R)-spiro-2′-(5′,5′-dimethyl-6′-oxo)tetrahydropyran] | – | Inhibition Type V 17β-HSD % Inh. at 3 · 10^−6 (Table 4′, 3 · 10^−6): 95.2%; Inhibition Type V 17β-HSD % Inh. at 3 · 10^−7 (Table 4′, 3 · 10^−7): 90.6% |
| COCCOc1cc2c(cc1C(=O)OC)C1CC[C@@]3(C)C(CC[C@@]34CCC(C)(C)C(=O)O4)C1CC2 (stereo partly drawn) [EM-1402-CS, 2-Carbomethoxy-3-(2″-methoxyethyloxy)-1,3,5(10)-estratrien 17(R)-spiro-2′-(5′,5′-dimethyl-6′-oxo)tetrahydropyran] | 12 nM | – |
| CC1(C)CCC2(CCC3C4CCc5ccccc5C4CCC32C)OC1=O (centres unmarked) [CS-224] | 2.9 nM and 10.7 nM | – |
| CC12CCC3c4ccc(O)cc4CCC3C1CCC21CC=CC(=O)O1 [PB-132-140, 3-hydroxy-1,3,5(10)-estratrien-17(R)-spiro-2′-(4′,5′-dihydro-6′-oxo)pyran] | 49 ± 5 nM | – |
| CN1C(=O)C=C[C@]2(C)C3CC[C@@]4(C)C(CC[C@@]45CCCC(=O)O5)C3CCC12 (some centres unmarked) [EM-1122-CS] | – | Inhibition Type V 17β-HSD % inh. At 3.10^−6 (Table 5 column 2, 3.10^−6): 95) %; Inhibition Type V 17β-HSD % inh. At 3.10^−7 (Table 5 column 2, 3.10^−7): (80% |
| CCCC(=O)OC1(C(C)=O)CCC2C3C=C(C)C4=CC(=O)CC(C)C4(C)C3CCC21C (centres unmarked) [CS-245] | – | IC50 [3]: 3.2 ± 0.1 nM |
| CC1(C)CCC2(CCC3C4CCc5cc(OCCN6CCCCC6)ccc5C4CCC32C)OC1=O [EM-1390-CS, 3-(N-piperidyl-ethyl)-1,3,5(10)-estratrien-17(R)-spiro-2′-(5′,5′-dimethyl-6′-oxo)-tetrahydropyran] | 48 nM | – |
| COc1ccc2c(c1)C(=O)CC1C3CCC4(CCC(C)(C)C(=O)O4)C3(C)CCC21O (centres unmarked) [EM-1386] | 25 nM | – |
| C[C@]12CCC(=O)C=C1C=C[C@@H]1[C@@H]2CC[C@]2(C)C(=O)C3(CC4CC4C3)C[C@@H]12 (some centres unmarked) [EM-1299, 4,6-Androstadien-3,17-dione-16-spirobicyclo[3′.1′.0′]-hexane] | – | Inhibition Type V 17B-HSD % Inh. At 3 · 10^−7 (first value in parentheses) (first of two concentrations, 3 · 10^−7): (73%; Inhibition Type V 17B-HSD % Inh. At 3 · 10^−7 (second value in parentheses) (second of two concentrations, 3 · 10^−7): 99) % |
